Test results published in US20190055283A1, “AZA-PEPTIDE ALDEHYDES AND KETONES” (OHIO STATE INNOVATION FOUNDATION, priority 2016, published 2019).
pIC50, pKi: −log10 of the molar value.

What was measured:
Type in all cases: biochemical
legumain = experiment: Legumain inhibition kinetic assay
Protocol: (§1) Generally, for the 20S proteasome the enzymatic hydrolysis of fluorogenic substrate Suc-LLVY-AMC by the 20S proteasome is monitored continuously for chymotrypsin-like (CT-L) activity at λexc=360, λem=460 nm for 45 min at 30° C. under standard assay conditions (Assay buffer: pH 7.5, 20 mM Tris, 0.02% w/v SDS, 1 mM EDTA, 2% v/v DMSO). Caspase activities are measured in 100 mM HEPES, 10% sucrose, 0.1% CHAPS, 10 mM DTT, pH 7.5 and 25° C.^21 Legumain activity is measured in 0.1 M citrate-phosphate buffer at pH 6.8 containing 4 mM DTT with Cbz-AAN-AMC as the substrate^9b. Activity of the MALT1 active fragment (aa325-769) is detected by cleavage of the tetra-peptide substrate LRSR-AMC (7-amino-4-methylcoumarin) that results in fluorescence emission when AMC is released. IC50 values are determined for the new compounds by dose-dependent inhibition. In parallel, well-characterized MALT1 inhibitors (e.g. Z—VRPR-FMIK, mepazine, MI-2) are used as reference compounds. Cathepsin B activity is performed in 0.1 M phosphate, 1.25 mM EDTA, 0.01% Brij, pH 6.0. Papain activity is measured in 10 mM DTT, 50 mM phosphate, pH 6.2. Trypsin activity is performed in 0.046 M Tris/HCl buffer at pH 8.1 with 0.0115 M CaCl2.
(§2) Results from kinetic assays for compounds tested against the 20S proteasome, caspase-3, and legumain are shown in Table 4, Table 5, and Table 6, respectively.

caspase-3 = target: T1, caspase-3 (Homo sapiens, UniProt P42574); experiment: Caspase 3 inhibition kinetic assay
T1 construct: Professor Guy Salvesen, Burnham Institute (gift, not a purchase)
T1 sequence (P42574 29-175 limits assumed): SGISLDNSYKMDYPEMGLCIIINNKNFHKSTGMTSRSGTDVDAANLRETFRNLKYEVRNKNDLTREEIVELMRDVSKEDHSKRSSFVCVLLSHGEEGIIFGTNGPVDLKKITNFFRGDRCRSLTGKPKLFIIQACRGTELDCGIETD
Protocol: as §1, §2

human 20S proteasome = target: T2, human 20S proteasome (Homo sapiens, UniProt P20618+P28074); experiment: Kinetic assay of 20S proteasome chymotryptic activity (Suc-LLVY-AMC); conditions: Suc-LLVY-AMC substrate, pH 7.8, 37° C., competitive inhibition model
T2 construct: purchased
Protocol: Kinetic assays were performed on a fluorescent 96-well plate reader with human 20S proteasome. Chymotryptic activity was measured in 20 mM HEPES, 0.5 mM EDTA, 0.037% SDS, pH 7.8 at 37° C., using 0-100 μM Suc-LLVY-AMC as the fluorogenic substrate, and […] 4.42×10^−4 mg/100 μL enzyme.
Triplicates of velocities (fluorescence vs time) were obtained at various concentrations of substrate ([…]) and aza-peptide inhibitor (0, 25, 50, 100 μM) then converted to specific activity using Lambert-Beer's law and enzyme concentration.
Enzyme specific activities were fit to a competitive inhibition model using GraphPad Prism software for nonlinear fitting.

SMILES	pKi (human 20S proteasome)	further results
C[C@H](NC(=O)OCc1ccccc1)C(=O)N[C@@H](C)C(=O)NN(CC(N)=O)C(=O)C(=O)Cc1ccccc1 [Z-Ala-Ala-AAsn-COBn, Benzyl((S)-1-(((S)-1-(2-(2-amino-2-oxoethyl)-2-(2-oxo-3-phenylpropanoyl) hydrazinyl)-1-oxopropan-2-yl)amino)-1-oxopropan-2-yl)carbamate]	–	Ki (μM) (legumain): Weak
CC(=O)C(=O)N(CC(N)=O)NC(=O)[C@H](C)NC(=O)[C@H](C)NC(=O)OCc1ccccc1 [Z-Ala-Ala-AAsn-COMe, Benzyl ((S)-1-(((S)-1-(2-(2-amino-2-oxoethyl)-2-(2-oxopropanoyl)hydrazinyl)-1-oxopropan-2-yl)amino)-1-oxopropan-2-yl)carbamate]	–	Ki (μM) (legumain): Weak
CCOC(=O)C(=O)N(CC(N)=O)NC(=O)[C@H](C)NC(=O)[C@H](C)NC(=O)OCc1ccccc1 [Z-Ala-Ala-AAsn-COOEt, Ethyl 2-(1-(2-amino-2-oxoethyl)-2-(((benzyloxy)carbonyl)-L-alanyl-L-alanyl)hydrazinyl)-2-oxoacetate]	–	Ki (μM) (legumain): Weak
CC(=O)C(=O)N(CC(=O)O)NC(=O)[C@@H](NC(=O)[C@H](CCC(=O)O)NC(=O)[C@H](CC(=O)O)NC(=O)OCc1ccccc1)C(C)C [Z-Asp-Glu-Val-AAsp-COMe, (5S,8S,11S)-8-(2-carboxyethyl)-5-(carboxymethyl)-11-isopropyl-3,6,9,12-tetraoxo-14-(2-oxopropanoyl)-1-phenyl-2-oxa-4,7,10,13,14-pentaazahexadecan-16-oic acid]	–	pIC50 (caspase-3): 7.26
CC(C)[C@H](NC(=O)[C@H](CCC(=O)O)NC(=O)[C@H](CC(=O)O)NC(=O)OCc1ccccc1)C(=O)N[C@H](C=O)CC(=O)O [Z-Asp-Glu-Val-Asp-COH, reference compound]	–	pIC50 (caspase-3): 8.35
CC(C)C[C@H](NC(=O)OCc1ccccc1)C(=O)N[C@@H](CC(C)C)C(=O)NN(C)C(=O)C=O [Z-Leu-Leu-AAla-COH, Benzyl ((S)-4-methyl-1-(((S)-4-methyl-1-(2-methyl-2-(2-oxoacetyl)hydrazinyl)-1-oxopentan-2-yl)amino)-1-oxopentan-2-yl)carbamate]	4.36	–
CC(=O)C(=O)N(C)NC(=O)[C@H](CC(C)C)NC(=O)[C@H](CC(C)C)NC(=O)OCc1ccccc1 [Z-Leu-Leu-AAla-COMe, Benzyl ((S)-4-methyl-1-(((S)-4-methyl-1-(2-methyl-2-(2-oxopropanoyl)hydrazinyl)-1-oxopentan-2-yl)amino)-1-oxopentan-2-yl)carbamate]	4.14	–
CC(C)C[C@H](NC(=O)OCc1ccccc1)C(=O)N[C@@H](CC(C)C)C(=O)NNC(=O)C=O [Z-Leu-Leu-AGly-COH, Benzyl ((S)-4-methyl-1-(((S)-4-methyl-1-oxo-1-(2-(2-oxoacetyl)hydrazinyl)pentan-2-yl)amino)-1-oxopentan-2-yl)carbamate]	4.46	–
CCOC(=O)C(=O)N(CC(C)C)NC(=O)[C@H](CC(C)C)NC(=O)[C@H](CC(C)C)NC(=O)OCc1ccccc1 [Z-Leu-Leu-ALeu-COOEt, Ethyl 2-(2-(((benzyloxy)carbonyl)-L-leucyl-L-leucyl)-1-isobutylhydrazinyl)-2-oxoacetate]	–	Ki (μM) (human 20S proteasome): weak

Continued, in another order:

pKi (human 20S proteasome)	SMILES	further results
4.54	CC(=O)C(=O)NNC(=O)[C@H](CC(C)C)NC(=O)[C@H](CC(C)C)NC(=O)OCc1ccccc1 [Z-Leu-Leu-AGly-COMe, Benzyl((S)-4-methyl-1-(((S)-4-methyl-1-oxo-1-(2-(2-oxopropanoyl)hydrazinyl)pentan-2-yl)amino)-1-oxopentan-2-yl)carbamate]	–
4.09	CC(C)C[C@H](NC(=O)OCc1ccccc1)C(=O)N[C@@H](CC(C)C)C(=O)NN(CC(C)C)C(=O)C(=O)Cc1ccccc1 [Z-Leu-Leu-ALeu-COBn, Benzyl ((S)-1-(((S)-1-(2-isobutyl-2-(2-oxo-3-phenylpropanoyl)hydrazinyl)-4-methyl-1-oxopentan-2-yl)amino)-4-methyl-1-oxopentan-2-yl)carbamate]	–
4.62	CC(C)C[C@H](NC(=O)OCc1ccccc1)C(=O)N[C@@H](CC(C)C)C(=O)NN(CC(C)C)C(=O)C=O [Z-Leu-Leu-ALeu-COH, Benzyl ((S)-1-(((S)-1-(2-isobutyl-2-(2-oxoacetyl)hydrazinyl)-4-methyl-1-oxopentan-2-yl)amino)-4-methyl-1-oxopentan-2-yl)carbamate]	–
4.57	CC(=O)C(=O)N(CC(C)C)NC(=O)[C@H](CC(C)C)NC(=O)[C@H](CC(C)C)NC(=O)OCc1ccccc1 [Z-Leu-Leu-ALeu-COMe, Benzyl((S)-1-(((S)-1-(2-isobutyl-2-(2-oxopropanoyl)hydrazinyl)-4-methyl-1-oxopentan-2-yl)amino)-4-methyl-1-oxopentan-2-yl)carbamate]	–
4.26	CC(C)C[C@H](NC(=O)OCc1ccccc1)C(=O)N[C@@H](Cc1ccccc1)C(=O)NN(CC(C)C)C(=O)C(=O)Cc1ccccc1 [Z-Leu-Phe-ALeu-COBn, Benzyl ((S)-1-(((S)-1-(2-isobutyl-2-(2-oxo-3-phenylpropanoyl)hydrazinyl)-1-oxo-3-phenylpropan-2-yl)amino)-4-methyl-1-oxopentan-2-yl)carbamate]	–
4.33	CC(=O)C(=O)N(CC(C)C)NC(=O)[C@H](Cc1ccccc1)NC(=O)[C@H](CC(C)C)NC(=O)OCc1ccccc1 [Z-Leu-Phe-ALeu-COMe, Benzyl((S)-1-(((S)-1-(2-isobutyl-2-(2-oxopropanoyl)hydrazinyl)-1-oxo-3-phenylpropan-2-yl)amino)-4-methyl-1-oxopentan-2-yl)carbamate]	–
